The record followed here is PMC2880701 (Journal of the American Chemical Society, 2009).

One assay has as its target HDAC1 (Homo sapiens, UniProt Q13547). As to the kind of experiment: homogeneous trypsin-coupled fluorigenic HDAC assay, HDAC1. To be noted: isostere versus corresponding depsipeptide natural product (active thiol forms).
A further assay has as its target HDAC2 (Homo sapiens, UniProt Q92769). Format: biochemical. As to conditions: read-out: HDAC inhibitory activity IC50, HDAC2.

Chain of HDAC2 (Q92769 whole entry): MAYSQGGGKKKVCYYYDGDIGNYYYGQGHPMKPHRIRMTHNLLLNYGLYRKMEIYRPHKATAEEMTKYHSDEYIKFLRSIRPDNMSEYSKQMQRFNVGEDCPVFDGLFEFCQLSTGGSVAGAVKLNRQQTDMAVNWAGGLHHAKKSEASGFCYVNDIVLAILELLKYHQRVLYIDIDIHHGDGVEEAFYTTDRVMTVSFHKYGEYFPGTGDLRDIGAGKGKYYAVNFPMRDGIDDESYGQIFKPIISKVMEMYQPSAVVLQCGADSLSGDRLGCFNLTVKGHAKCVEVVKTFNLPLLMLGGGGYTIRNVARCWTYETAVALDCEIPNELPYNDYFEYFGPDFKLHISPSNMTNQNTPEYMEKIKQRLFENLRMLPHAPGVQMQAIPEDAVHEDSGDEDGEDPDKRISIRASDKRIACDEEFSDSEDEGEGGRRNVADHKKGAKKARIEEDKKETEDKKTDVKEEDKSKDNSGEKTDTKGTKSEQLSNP
Chain of HDAC1 (Q13547 whole entry): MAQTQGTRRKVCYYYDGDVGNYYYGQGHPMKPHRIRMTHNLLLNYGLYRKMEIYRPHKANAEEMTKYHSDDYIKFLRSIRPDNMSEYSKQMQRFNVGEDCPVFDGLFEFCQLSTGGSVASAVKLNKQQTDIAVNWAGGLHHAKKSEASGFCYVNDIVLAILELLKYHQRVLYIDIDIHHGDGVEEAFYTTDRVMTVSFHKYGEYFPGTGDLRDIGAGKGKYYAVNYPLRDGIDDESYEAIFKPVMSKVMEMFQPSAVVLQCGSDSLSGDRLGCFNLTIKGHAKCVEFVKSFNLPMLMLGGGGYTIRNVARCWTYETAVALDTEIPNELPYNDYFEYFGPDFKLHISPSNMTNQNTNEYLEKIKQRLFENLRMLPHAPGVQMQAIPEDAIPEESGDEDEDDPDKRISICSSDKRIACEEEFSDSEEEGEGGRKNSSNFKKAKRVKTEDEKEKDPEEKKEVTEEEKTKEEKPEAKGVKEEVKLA

Consider `CC(C)[C@@H]1NC(=O)[C@]2(C)CSC(=N2)c2csc(n2)CNC(=O)C[C@@H](/C=C/CCS)NC1=O` [Largazole Isostere Thiol (31)], for which the “fold less potent against HDAC1 than the parent natural product” value on HDAC1 came out at 9 fold.
In the case of `CCCCCCCC(=O)SCC/C=C/[C@@H]1CC(=O)NCc2nc(cs2)C2=N[C@@](C)(CS2)C(=O)N[C@@H](C(C)C)C(=O)N1` [Largazole Isostere (11)], the IC50 at HDAC2 was above 3000 nM.

The IC50 is the concentration that gives 50% inhibition.
